Source: ChEMBL document CHEMBL5614394, “Novel pleuromutilin derivatives conjugated with phenyl-sulfide and boron-containing moieties as potent antibacterial agents against antibiotic-resistant bacteria” (Eur J Med Chem, 2024)
Values after ≈ are worked out from the molar mass of the structure shown.

test system: not listed separately; assay: Stability in rat liver microsomes assessed as drug metabolism at 1 uM measured within 1 hrs in presence of NADPH by LC-MS analysis; assay type: ADME, Microsome; conditions: read-out: Drug metabolism

SMILES	metabolised at 1 h, 1 µM
C=C[C@]1(C)C[C@@H](OC(=O)CS[C@@H]2CC[C@@H](N)C[C@H]2O)[C@]2(C)[C@H](C)CC[C@]3(CCC(=O)[C@H]32)[C@@H](C)[C@@H]1O [LEFAMULIN]	80.2%

test system: Staphylococcus epidermidis; assay: Antibacterial activity against methicillin-resistant Staphylococcus epidermidis isolate 20-26 assessed as inhibition of visible growth of bacteria incubated for 24 hrs by CLSI protocol based broth-dilution method; assay type: functional; conditions: not given

SMILES	MIC
C=C[C@]1(C)C[C@@H](OC(=O)CS[C@@H]2CC[C@@H](N)C[C@H]2O)[C@]2(C)[C@H](C)CC[C@]3(CCC(=O)[C@H]32)[C@@H](C)[C@@H]1O [LEFAMULIN]	0.5 µg/mL (≈ 0.985 µM)

test system: Staphylococcus aureus; assay: Antibacterial activity against methicilin-resistant Staphylococcus aureus isolate 15-2 assessed as inhibition of visible growth of bacteria incubated for 24 hrs by CLSI protocol based broth-dilution method; assay type: functional; conditions: not given

SMILES	MIC
C=C[C@]1(C)C[C@@H](OC(=O)CS[C@@H]2CC[C@@H](N)C[C@H]2O)[C@]2(C)[C@H](C)CC[C@]3(CCC(=O)[C@H]32)[C@@H](C)[C@@H]1O [LEFAMULIN]	0.5 µg/mL (≈ 0.985 µM)

test system: Staphylococcus epidermidis; assay: Antibacterial activity against methicillin-resistant Staphylococcus epidermidis isolate 20-27 assessed as inhibition of visible growth of bacteria incubated for 24 hrs by CLSI protocol based broth-dilution method; assay type: functional; conditions: not given

SMILES	MIC
C=C[C@]1(C)C[C@@H](OC(=O)CS[C@@H]2CC[C@@H](N)C[C@H]2O)[C@]2(C)[C@H](C)CC[C@]3(CCC(=O)[C@H]32)[C@@H](C)[C@@H]1O [LEFAMULIN]	0.25 µg/mL (≈ 0.492 µM)

test system: Acinetobacter baumannii; assay: Antibacterial activity against Acinetobacter baumannii ATCC 19606 assessed as inhibition of visible growth of bacteria incubated for 24 hrs by CLSI protocol based broth-dilution method; assay type: functional; conditions: not given

SMILES	MIC
C=C[C@]1(C)C[C@@H](OC(=O)CS[C@@H]2CC[C@@H](N)C[C@H]2O)[C@]2(C)[C@H](C)CC[C@]3(CCC(=O)[C@H]32)[C@@H](C)[C@@H]1O [LEFAMULIN]	> 64 µg/mL

test system: Enterococcus faecalis; assay: Antibacterial activity against Enterococcus faecalis HB 24-4 assessed as inhibition of visible growth of bacteria incubated for 24 hrs by CLSI protocol based broth-dilution method; assay type: functional; conditions: not given

SMILES	MIC
C=C[C@]1(C)C[C@@H](OC(=O)CS[C@@H]2CC[C@@H](N)C[C@H]2O)[C@]2(C)[C@H](C)CC[C@]3(CCC(=O)[C@H]32)[C@@H](C)[C@@H]1O [LEFAMULIN]	2 µg/mL (≈ 3.94 µM)

test system: Streptococcus pneumoniae; assay: Antibacterial activity against penicillin resistant Streptococcus pneumoniae isolate 20-3 assessed as inhibition of visible growth of bacteria incubated for 24 hrs by CLSI protocol based broth-dilution method; assay type: functional; conditions: not given

SMILES	MIC
C=C[C@]1(C)C[C@@H](OC(=O)CS[C@@H]2CC[C@@H](N)C[C@H]2O)[C@]2(C)[C@H](C)CC[C@]3(CCC(=O)[C@H]32)[C@@H](C)[C@@H]1O [LEFAMULIN]	1 µg/mL (≈ 1.97 µM)

test system: Staphylococcus epidermidis; assay: Antibacterial activity against methicillin-sensitive Staphylococcus epidermidis isolate 20-15 assessed as inhibition of visible growth of bacteria incubated for 24 hrs by CLSI protocol based broth-dilution method; assay type: functional; conditions: not given

SMILES	MIC
C=C[C@]1(C)C[C@@H](OC(=O)CS[C@@H]2CC[C@@H](N)C[C@H]2O)[C@]2(C)[C@H](C)CC[C@]3(CCC(=O)[C@H]32)[C@@H](C)[C@@H]1O [LEFAMULIN]	0.25 µg/mL (≈ 0.492 µM)

test system: Staphylococcus aureus; assay: Antibacterial activity against Staphylococcus aureus ATCC 29213 assessed as inhibition of visible growth of bacteria incubated for 24 hrs by CLSI protocol based broth-dilution method; assay type: functional; conditions: not given

SMILES	MIC
C=C[C@]1(C)C[C@@H](OC(=O)CS[C@@H]2CC[C@@H](N)C[C@H]2O)[C@]2(C)[C@H](C)CC[C@]3(CCC(=O)[C@H]32)[C@@H](C)[C@@H]1O [LEFAMULIN]	0.25 µg/mL (≈ 0.492 µM)

test system: not listed separately; assay: Stability in mouse liver microsomes assessed as drug metabolism at 1 uM measured within 1 hrs in presence of NADPH by LC-MS analysis; assay type: ADME, Microsome; conditions: read-out: Drug metabolism

SMILES	metabolised at 1 h, 1 µM
C=C[C@]1(C)C[C@@H](OC(=O)CS[C@@H]2CC[C@@H](N)C[C@H]2O)[C@]2(C)[C@H](C)CC[C@]3(CCC(=O)[C@H]32)[C@@H](C)[C@@H]1O [LEFAMULIN]	41.4%

test system: Staphylococcus epidermidis; assay: Antibacterial activity against methicillin-resistant Staphylococcus epidermidis isolate 20-29 assessed as inhibition of visible growth of bacteria incubated for 24 hrs by CLSI protocol based broth-dilution method; assay type: functional; conditions: not given

SMILES	MIC
C=C[C@]1(C)C[C@@H](OC(=O)CS[C@@H]2CC[C@@H](N)C[C@H]2O)[C@]2(C)[C@H](C)CC[C@]3(CCC(=O)[C@H]32)[C@@H](C)[C@@H]1O [LEFAMULIN]	0.125 µg/mL (≈ 0.246 µM)

test system: Streptococcus pneumoniae; assay: Antibacterial activity against penicillin resistant Streptococcus pneumoniae isolate 20-4 assessed as inhibition of visible growth of bacteria incubated for 24 hrs by CLSI protocol based broth-dilution method; assay type: functional; conditions: not given

SMILES	MIC
C=C[C@]1(C)C[C@@H](OC(=O)CS[C@@H]2CC[C@@H](N)C[C@H]2O)[C@]2(C)[C@H](C)CC[C@]3(CCC(=O)[C@H]32)[C@@H](C)[C@@H]1O [LEFAMULIN]	1 µg/mL (≈ 1.97 µM)

test system: Streptococcus pneumoniae; assay: Antibacterial activity against penicillin resistant Streptococcus pneumoniae isolate 20-2 assessed as inhibition of visible growth of bacteria incubated for 24 hrs by CLSI protocol based broth-dilution method; assay type: functional; conditions: not given

SMILES	MIC
C=C[C@]1(C)C[C@@H](OC(=O)CS[C@@H]2CC[C@@H](N)C[C@H]2O)[C@]2(C)[C@H](C)CC[C@]3(CCC(=O)[C@H]32)[C@@H](C)[C@@H]1O [LEFAMULIN]	1 µg/mL (≈ 1.97 µM)

test system: not listed separately; assay: Stability in human liver microsomes assessed as drug metabolism at 1 uM measured within 1 hrs in presence of NADPH by LC-MS analysis; assay type: ADME, Microsome; conditions: read-out: Drug metabolism

SMILES	metabolised at 1 h, 1 µM
C=C[C@]1(C)C[C@@H](OC(=O)CS[C@@H]2CC[C@@H](N)C[C@H]2O)[C@]2(C)[C@H](C)CC[C@]3(CCC(=O)[C@H]32)[C@@H](C)[C@@H]1O [LEFAMULIN]	84%

test system: Streptococcus pneumoniae; assay: Antibacterial activity against penicillin resistant Streptococcus pneumoniae isolate 20-1 assessed as inhibition of visible growth of bacteria incubated for 24 hrs by CLSI protocol based broth-dilution method; assay type: functional; conditions: not given

SMILES	MIC
C=C[C@]1(C)C[C@@H](OC(=O)CS[C@@H]2CC[C@@H](N)C[C@H]2O)[C@]2(C)[C@H](C)CC[C@]3(CCC(=O)[C@H]32)[C@@H](C)[C@@H]1O [LEFAMULIN]	1 µg/mL (≈ 1.97 µM)

test system: Staphylococcus aureus; assay: Antibacterial activity against Staphylococcus aureus USA 300 assessed as inhibition of visible growth of bacteria incubated for 24 hrs by CLSI protocol based broth-dilution method; assay type: functional; conditions: not given

SMILES	MIC
C=C[C@]1(C)C[C@@H](OC(=O)CS[C@@H]2CC[C@@H](N)C[C@H]2O)[C@]2(C)[C@H](C)CC[C@]3(CCC(=O)[C@H]32)[C@@H](C)[C@@H]1O [LEFAMULIN]	0.25 µg/mL (≈ 0.492 µM)

test system: Staphylococcus aureus; assay: Antibacterial activity against Staphylococcus aureus ATCC 25923 assessed as inhibition of visible growth of bacteria incubated for 24 hrs by CLSI protocol based broth-dilution method; assay type: functional; conditions: not given

SMILES	MIC
C=C[C@]1(C)C[C@@H](OC(=O)CS[C@@H]2CC[C@@H](N)C[C@H]2O)[C@]2(C)[C@H](C)CC[C@]3(CCC(=O)[C@H]32)[C@@H](C)[C@@H]1O [LEFAMULIN]	≤ 0.25 µg/mL

test system: Escherichia coli; assay: Antibacterial activity against Escherichia coli ATCC 25922 assessed as inhibition of visible growth of bacteria incubated for 24 hrs by CLSI protocol based broth-dilution method; assay type: functional; conditions: not given

SMILES	MIC
C=C[C@]1(C)C[C@@H](OC(=O)CS[C@@H]2CC[C@@H](N)C[C@H]2O)[C@]2(C)[C@H](C)CC[C@]3(CCC(=O)[C@H]32)[C@@H](C)[C@@H]1O [LEFAMULIN]	8 µg/mL (≈ 15.8 µM)

test system: Staphylococcus aureus; assay: Antibacterial activity against Staphylococcus aureus ATCC 33591 assessed as inhibition of visible growth of bacteria incubated for 24 hrs by CLSI protocol based broth-dilution method; assay type: functional; conditions: not given

SMILES	MIC
C=C[C@]1(C)C[C@@H](OC(=O)CS[C@@H]2CC[C@@H](N)C[C@H]2O)[C@]2(C)[C@H](C)CC[C@]3(CCC(=O)[C@H]32)[C@@H](C)[C@@H]1O [LEFAMULIN]	0.25 µg/mL (≈ 0.492 µM)

test system: Streptococcus pneumoniae; assay: Antibacterial activity against penicillin sensitive Streptococcus pneumoniae isolate 20-1 assessed as inhibition of visible growth of bacteria incubated for 24 hrs by CLSI protocol based broth-dilution method; assay type: functional; conditions: not given

SMILES	MIC
C=C[C@]1(C)C[C@@H](OC(=O)CS[C@@H]2CC[C@@H](N)C[C@H]2O)[C@]2(C)[C@H](C)CC[C@]3(CCC(=O)[C@H]32)[C@@H](C)[C@@H]1O [LEFAMULIN]	1 µg/mL (≈ 1.97 µM)

test system: Staphylococcus aureus; assay: Antibacterial activity against methicillin resistant Staphylococcus aureus USA 300 infected in peritonitis sepsis CD-1 mouse model assessed as mouse survival rate at 40 mg/kg, iv administered as single dose and measured after 7 days relative to control; assay type: functional; conditions: USA 300, 168 h, time 7 day

SMILES	survival at 40 mg/kg
C=C[C@]1(C)C[C@@H](OC(=O)CS[C@@H]2CC[C@@H](N)C[C@H]2O)[C@]2(C)[C@H](C)CC[C@]3(CCC(=O)[C@H]32)[C@@H](C)[C@@H]1O [LEFAMULIN]	33%

test system: Staphylococcus aureus; assay: Antibacterial activity against Staphylococcus aureus ATCC 700788 assessed as inhibition of visible growth of bacteria incubated for 24 hrs by CLSI protocol based broth-dilution method; assay type: functional; conditions: not given

SMILES	MIC
C=C[C@]1(C)C[C@@H](OC(=O)CS[C@@H]2CC[C@@H](N)C[C@H]2O)[C@]2(C)[C@H](C)CC[C@]3(CCC(=O)[C@H]32)[C@@H](C)[C@@H]1O [LEFAMULIN]	0.5 µg/mL (≈ 0.985 µM)

test system: Staphylococcus aureus; assay: Antibacterial activity against Staphylococcus aureus ATCC 43300 assessed as inhibition of visible growth of bacteria incubated for 24 hrs by CLSI protocol based broth-dilution method; assay type: functional; conditions: not given

SMILES	MIC
C=C[C@]1(C)C[C@@H](OC(=O)CS[C@@H]2CC[C@@H](N)C[C@H]2O)[C@]2(C)[C@H](C)CC[C@]3(CCC(=O)[C@H]32)[C@@H](C)[C@@H]1O [LEFAMULIN]	0.25 µg/mL (≈ 0.492 µM)

test system: Staphylococcus epidermidis; assay: Antibacterial activity against methicillin-resistant Staphylococcus epidermidis isolate 20-28 assessed as inhibition of visible growth of bacteria incubated for 24 hrs by CLSI protocol based broth-dilution method; assay type: functional; conditions: not given

SMILES	MIC
C=C[C@]1(C)C[C@@H](OC(=O)CS[C@@H]2CC[C@@H](N)C[C@H]2O)[C@]2(C)[C@H](C)CC[C@]3(CCC(=O)[C@H]32)[C@@H](C)[C@@H]1O [LEFAMULIN]	0.25 µg/mL (≈ 0.492 µM)

test system: Enterococcus faecalis; assay: Antibacterial activity against Enterococcus faecalis ATCC 29212 assessed as inhibition of visible growth of bacteria incubated for 24 hrs by CLSI protocol based broth-dilution method; assay type: functional; conditions: not given

SMILES	MIC
C=C[C@]1(C)C[C@@H](OC(=O)CS[C@@H]2CC[C@@H](N)C[C@H]2O)[C@]2(C)[C@H](C)CC[C@]3(CCC(=O)[C@H]32)[C@@H](C)[C@@H]1O [LEFAMULIN]	32 µg/mL (≈ 63 µM)

test system: Staphylococcus aureus; assay: Antibacterial activity against Staphylococcus aureus ATCC 700699 assessed as inhibition of visible growth of bacteria incubated for 24 hrs by CLSI protocol based broth-dilution method; assay type: functional; conditions: not given

SMILES	MIC
C=C[C@]1(C)C[C@@H](OC(=O)CS[C@@H]2CC[C@@H](N)C[C@H]2O)[C@]2(C)[C@H](C)CC[C@]3(CCC(=O)[C@H]32)[C@@H](C)[C@@H]1O [LEFAMULIN]	0.25 µg/mL (≈ 0.492 µM)
